# Measurements from patent US10030016B2 (Sunesis Pharmaceuticals, Inc., priority 2009, dated 2018).
# Where a name gives a salt, the structure may show the parent alone. Read-outs that look alike come from different tables or passages of the source.
# Assays:
# PDK1 = PDK1 (Homo sapiens (Human), UniProt O15530); assay: PDK1 kinase assay (coupled PDK1/AKT/FAM-crosstide assay, IMAP fluorescence polarization); type: biochemical
# In short: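 GST-tagged human PDK1 (aa 51-359, 0.75 nM) from insect cells activated unphosphorylated GST-AKT2 (aa 140-467–PIFtide fusion, 10 nM), which phosphorylated 100 nM FAM-crosstide; 40 μM ATP, pH 7.2 Tris/MgCl2, 30 min at 25° C. IMAP fluorescence polarization read-out; ΔmP versus compound concentration fitted with a 4-parameter curve.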
# [1] = tested on: phospho-akt (Thr308) in PC-3 cells; assay: Inhibition of phospho-akt (Thr308) in PC-3 cells, MSD phospho-akt 308 ELISA kit; type: cell-based; settings: Homo sapiens, 2 hours, no serum, read-out: EC50
# In short: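 Electrochemiluminescent MSD ELISA of Thr308-phosphorylated Akt after a 2 h serum-free compound exposure of PC-3 cells (15,000/well, plated overnight). Controls: DMSO (high), 5 μM wortmannin (low). Lysate binding overnight at 4 °C; detection antibody 1 h at room temperature.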
# [2] = inhibition of P308 Akt in PC-3 cells using MSD
# [3] = inhibition of phospo-PDK1 in vitro
# [4] = inhibition of P308 Akt in PC-3 cells, MSD
# Chain of PDK1 (O15530 51-359): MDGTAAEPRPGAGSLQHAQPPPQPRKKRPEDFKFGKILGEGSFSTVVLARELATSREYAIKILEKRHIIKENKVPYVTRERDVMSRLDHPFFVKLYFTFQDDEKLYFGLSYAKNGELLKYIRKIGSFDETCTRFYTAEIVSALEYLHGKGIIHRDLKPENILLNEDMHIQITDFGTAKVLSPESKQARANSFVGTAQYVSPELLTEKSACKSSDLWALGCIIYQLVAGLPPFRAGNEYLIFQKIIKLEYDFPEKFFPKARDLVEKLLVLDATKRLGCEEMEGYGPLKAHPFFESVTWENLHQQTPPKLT
SMILES,IC50 (PDK1; inhibition of PDK1 in vitro) [nM],"EC50 [1, 2] [nM]",IC50 (PDK1; [3]) [nM],"EC50 [1, 4] [nM]",further results
C[C@H](NC(=O)c1cc(C#N)cnc1NCc1ccc(-c2cnc(N)c(N3CCC[C@H](N)C3)n2)cc1)c1ccc(F)cc1 [Example 197],< 100,< 1000,,,
"Nc1ncc(-c2ccc(CNc3ncc(C(F)(F)F)cc3C(=O)Nc3ccc(F)cc3)cc2)nc1NCC(O)CO (stereo not shown) [Example 245, 2-{4-[5-Amino-6-(2,3-dihydroxy-propylamino)-pyrazin-2-yl]-benzylamino}-N-(4-fluoro-phenyl)-5-trifluoromethyl-nicotinamide]",< 100,< 1000,,,
"O=C(NCc1ccc(F)c(F)c1)c1cccnc1NCc1ccccc1-c1c[nH]c2ncccc12 [Example 6.4, N-(3,4-difluorobenzyl)-2-{[2-(1H-pyrrolo[2,3-b]pyridin-3-yl)benzyl]amino}-pyridine-3-carboxamide]",,,> 5000,> 10000,
"N#Cc1cnc(NCc2ccc(-c3cnc4[nH]ncc4c3)cc2)c(C(=O)NCc2ccc(F)cc2)c1 [Example 397, 5-Cyano-N-(4-fluoro-benzyl)-2-[4-(1H-pyrazolo[3,4-b]pyridin-5-yl)-benzylamino]-nicotinamide]",< 100,< 1000,,,
"Nc1ncnn2c(-c3ccc(CNc4ncc(C(F)(F)F)cc4C(=O)NCc4ccc(F)c(F)c4)cc3)ccc12 [Example 179, 2-[4-(4-Amino-pyrrolo [2,1-f][1,2,4]triazin-7-yl)-benzylamino]-N-(3,4-difluoro-benzyl)-5-trifluoromethyl-nicotinamide]",100 to 1000,1000 to 10000,,,
"C[C@H](NC(=O)c1cc(C#N)cnc1NCc1ccc(-c2cnc3[nH]ncc3c2)nc1)c1ccc(F)cc1 [Example 65, 5-Cyano-N-[(S)-1-(4-fluoro-phenyl)-ethyl]-2-{[6-(1H-pyrazolo[3,4-b]pyridin-5-yl)-pyridin-3-ylmethyl]-amino}-nicotinamide]",< 100,< 1000,,,
"Nc1ncc(-c2ccc(CNc3ncc(C(F)(F)F)cc3C(=O)Nc3ccc(F)cc3)cc2)nc1N1CCC[C@@H](N)C1 [Example 189, 2-{4-[5-Amino-6-((R)-3-amino-piperidin-1-yl)-pyrazin-2-yl]-benzylamino}-N-(4-fluoro-phenyl)-5-trifluoromethyl-nicotinamide]",< 100,1000 to 10000,,,
O=C(NCc1ccc(F)c(F)c1)c1cccnc1Nc1cccc(-c2cccn3c(=O)[nH]nc23)c1 [Example 17.3],,,100 to 1000,> 10000,
"N#Cc1cnc(NCc2ccc(-c3cnc(N)cn3)cc2)c(C(=O)NCc2ccc(F)cc2)c1 [Example 378, 2-(4-(5-aminopyrazin-2-yl)benzylamino)-5-cyano-N-(4-fluorobenzyl) nicotinamide]",< 100,1000 to 10000,,,
"CNc1ncc2cc(C#CCNc3ncc(C#N)cc3C(=O)N[C@@H](C)c3ccc(F)cc3)ccc2n1 [Example 255, (S)-5-cyano-N-(1-(4-fluorophenyl)ethyl)-2-(3-(2-(methylamino)quinazolin-6-yl)prop-2-ynylamino)nicotinamide]",< 100,< 1000,,,
C[C@H](NC(=O)c1cc(C#N)cnc1N[C@@H](COc1ccc2[nH]c(=O)[nH]c2c1)c1ccccc1)c1ccc(F)cc1 [Example 16.10],,,100 to 1000,< 1000,
C[C@H](NC(=O)c1cccnc1N[C@@H](COc1ccc2[nH]c(=O)[nH]c2c1)c1ccccc1)c1ccc(F)c(F)c1 [Example 16.3],,,100 to 1000,1000 to 10000,
Nc1n[nH]c2ncc(-c3ccc(CNc4ncc(C(F)(F)F)cc4C(=O)N4CC(F)(F)C4)cc3)cc12 [Example 293],1000 to 5000,,,,"EC50 ([1]; PC-3, 2 h, inhibition of P308 Akt in PC-3 cells using MSD): > 10000 nM"
"CCCNC(=O)c1cccnc1NCc1cccc(-c2c[nH]c3ncccc23)c1 [Example 1.9, N-propyl-2-{[3-(1H-pyrrolo[2,3-b]pyridin-3-yl)benzyl]amino}pyridine-3-carboxamide]",,,> 5000,1000 to 10000,

# Now from value to compound, other results behind:
IC50 (PDK1; inhibition of PDK1 in vitro) [nM],"EC50 [1, 2] [nM]",IC50 (PDK1; [3]) [nM],"EC50 [1, 4] [nM]",SMILES,further results
,,< 100,< 1000,"CNC(=O)c1cnc(NCc2ccc(-c3ccc4ncnc(N)c4c3)s2)c(C(=O)NCc2ccc(F)c(F)c2)c1 [Example 7.24.3, 2-({[5-(4-aminoquinazolin-6-yl)thiophen-2-yl]methyl}amino)-N^3-(3,4-difluorobenzyl)-N^5-methylpyridine-3,5-dicarboxamide]",
,,< 100,> 10000,"O=C(NCc1ccc(F)c(F)c1)c1cccnc1NCc1ccc(-c2ccc3ncnc(N4CCOCC4)c3c2)s1 [Example 4.11, N-(3,4-difluorobenzyl)-2-(((5-(4-morpholinoquinazolin-6-yl)thiophen-2-yl)methyl)amino)nicotinamide]",
,,100 to 1000,,"CN(C)CCNC(=O)c1cnc(NCc2ccc(-c3ccc4ncnc(N)c4c3)s2)c(C(=O)NCc2ccc(F)c(F)c2)c1 [Example 7.24.2, 2-({[5-(4-aminoquinazolin-6-yl)thiophen-2-yl]methyl}amino)-N^3-(3,4-difluorobenzyl)-N^5-[2-(dimethylamino)ethyl] pyridine-3,5-dicarboxamide]","EC50 ([1]; PC-3, 2 h, inhibition of P308 Akt in PC-3 cells, MSD): 1000 to 10000 nM"
,,< 100,< 1000,"Cn1cnc2cnc3ccc(-c4ccc(CNc5ncc(C#N)nc5C(=O)NCc5ccc(F)cc5)s4)cc3c21 [Example 3.82, 6-cyano-N-(4-fluorobenzyl)-3-(((5-(1-methyl-1H-imidazo [4,5-c]quinolin-8-yl)thiophen-2-yl)methyl)amino)pyrazine-2-carboxamide (TFA salt)]",
1000 to 5000,> 10000,,,"N#Cc1cnc(NCc2ccc(Oc3cc(N)ncn3)cc2)c(C(=O)NCc2ccc(F)c(F)c2)c1 [Example 314, 2-(4-(6-aminopyrimidin-4-yloxy)benzylamino)-5-cyano-N-(3,4-difluorobenzyl)nicotinamide]",
< 100,< 1000,,,"Nc1ncnc2[nH]nc(-c3ccc(CNc4ncc(C(F)(F)F)cc4C(=O)NCc4ccc(F)c(F)c4)cc3)c12 [Example 329, 2-[4-(4-Amino-1H-pyrazolo [3,4-d]pyrimidin-3-yl)-benzylamino]-N-(3,4-difluoro-benzyl)-5-trifluoromethyl-nicotinamide]",
,,< 100,< 1000,"Nc1ncnc2ccc(-c3ccc(CNc4nccnc4C(=O)NCc4cc(F)cc(F)c4)s3)cc12 [Example 3.76, 3-({[5-(4-aminoquinazolin-6-yl)thiophen-2-yl]methyl}amino)-N-(3,5-difluorobenzyl)pyrazine-2-carboxamide (TFA salt)]",
< 100,1000 to 10000,,,"C[C@H](NC(=O)c1cccnc1NCc1ccc(-c2ccc3ncnc(NC4CC4)c3c2)s1)c1ccc(F)c(F)c1 [Example 386, 2-{[5-(4-Cyclopropylamino-quinazolin-6-yl)-thiophen-2-ylmethyl]-amino}-N-[(S)-1-(3,4-difluoro-phenyl)-ethyl]-nicotinamide]",
,,< 100,< 1000,"CNS(=O)(=O)c1cnc(NCc2ccc(-c3ccc4ncnc(N)c4c3)s2)c(C(=O)N[C@@H](C)c2ccc(F)c(F)c2)c1 [Example 8.7.4, 2-({[5-(4-aminoquinazolin-6-yl)thiophen-2-yl]methyl}amino)-N-[(1S)-1-(3,4-difluorophenyl)ethyl]-5-(methylsulfamoyl) pyridine-3-carboxamide]",
,,100 to 1000,1000 to 10000,"CN(Cc1ccc(F)c(F)c1)C(=O)c1nccnc1NCc1ccc(-c2ccc3ncnc(N)c3c2)s1 [Example 3.84, 3-({[5-(4-aminoquinazolin-6-yl)thiophen-2-yl]methyl}amino)-N-(3,4-difluorobenzyl)-N-methylpyrazine-2-carboxamide (TFA salt)]",
,,< 100,1000 to 10000,"C[C@H](NC(=O)c1cc(C(F)(F)F)cnc1NCc1ccc(-c2ccc3ncnc(N)c3c2)s1)c1ccc(F)cc1 [Example 8.12.5, 2-({[5-(4-aminoquinazolin-6-yl)thiophen-2-yl]methyl}amino)-N-[(1S)-1-(4-fluorophenyl)ethyl]-5-(trifluoromethyl)pyridine-3-carboxamide]",
< 100,< 1000,,,"Nc1cnc(-c2ccc(CNc3ncc(C(F)(F)F)cc3C(=O)NCc3ccc(F)c(F)c3)cc2)cn1 [Example 124, 2-(4-(5-aminopyrazin-2-yl)benzylamino)-N-(3,4-difluorobenzyl)-5-(trifluoromethyl) nicotinamide]",
< 100,1000 to 10000,,,"C[C@H](NC(=O)c1cc(C#N)cnc1NCc1ccc(-c2ccc(N)nc2)nc1)c1ccc(F)cc1 [Example 68, 2-[(6′-Amino-[2,3′]bipyridinyl-5-ylmethyl)-amino]-5-cyano-N-[(S)-1-(4-fluoro-phenyl)-ethyl]-nicotinamide]",
,,< 100,< 1000,"C[C@H](NC(=O)c1nc(C#N)cnc1NCc1ccc(-c2cnc3[nH]nc(NC(=O)c4ccccc4)c3c2)cc1)c1ccc(F)c(F)c1 [Example 37, (S)-3-(4-(3-benzamido-1H-pyrazolo[3,4-b]pyridin-5-yl)benzylamino)-6-cyano-N-(1-(3,4-difluorophenyl)ethyl)pyrazine-2-carboxamide]",
,,100 to 1000,1000 to 10000,"CC(C)[C@H](NC(=O)c1cccnc1NCc1ccc(-c2ccc3ncnc(N)c3c2)s1)c1ccc(F)cc1 [Example 3.45, (S)-2-((5-(4-aminoquinazolin-6-yl)thiophen-2-yl)methylamino)-N-(1-(4-fluorophenyl)-2-methylpropyl)nicotinamide (TFA salt)]",
